Experimental data taken from ChEMBL document CHEMBL4014333, “Discovery of Small Molecules for Repressing Cap-Independent Translation of Human Vascular Endothelial Growth Factor (hVEGF) as Novel Antitumor Agents” (J Med Chem, 2017).
Active and inactive are the calls of the source. The rule behind the calls is not given here. Numbered stars: 1 amine (or outer) side, 2 acyl side, 3 side chain; on linkers, the order of the positions; unused ones are H or OH. Square brackets hold non-standard residues; d marks the D form. Peptide text beside a SMILES is read from it. X1 = CN1CCC(COc2ccc3oc4c(N(CC(=O)[*:2])[*:1])c5ccccc5nc4c3c2)CC1

Experiments:
Homo sapiens [1] = species on record: Homo sapiens; assay: Binding affinity to biotin-labeled human wild type internal ribosome entry site A RNA G-quadruplex by SPR analysis
[2] = Binding affinity to biotin-labeled DNA hairpin (unknown origin) by SPR analysis
Homo sapiens [3] = species on record: Homo sapiens; assay: Binding affinity to biotin-labeled human 5'-UGAUGAGUGUGAGGAGGA-3' RNA G-quadruplex by SPR analysis

SMILES | Activity (Homo sapiens [1]) | Activity [2] | Activity (Homo sapiens [3])
CN(C)CCCNc1c2ccccc2nc2c1oc1c(OCCN(C)C)cccc12 | Active |  | 
COc1ccc2cc3[n+](cc2c1OCCCn1cc[n+](C)c1)CCc1cc2c(cc1-3)OCO2 | Active |  | 
C[n+]1c2ccccc2c(NCCN2CCCCC2)c2oc3ccc(OCC[N+]4(C)CCCCC4)cc3c21 | Active | Active | Active
CN1CCC(COc2ccc3oc4c(NCC(=O)NC(CCCCN)C(=O)NC(CCCNC(=N)N)C(=O)O)c5ccccc5nc4c3c2)CC1 (configuration not stated) | Active |  | 
O=C1/C(=C\c2ccc(N3CCOCC3)cc2)CC/C1=C\c1cccnc1 | Active |  | 
C[n+]1c2ccccc2c(NCC(=O)NCC(=O)NC(Cc2c[nH]cn2)C(=O)O)c2oc3ccccc3c21 (configuration not stated) | Active |  | 
CCN(CC)CCCNc1c2ccccc2[n+](C)c2c1[nH]c1ccccc12 | Active | Active | Active
CCN(CC)CCNc1c2ccccc2[n+](C)c2c1oc1ccc(OCC[N+]3(C)CCOCC3)cc12 | Active | Active | Active
C[n+]1c2ccccc2c(NCCO)c2[nH]c3ccccc3c21 | Active |  | 
CN(C)CCNc1c2ccccc2[n+](C)c2c1oc1ccc(OCCC[N+](C)(C)C)cc12 | Active | Active | Active
CCN(CC)CCNc1c2ccccc2[n+](C)c2c1oc1ccc(OCC3CC[N+](C)(C)CC3)cc12 | Active | Active | Active
C[n+]1c2ccccc2c(NCC(=O)NCC(=O)NC(CCCNC(=N)N)C(=O)O)c2oc3ccccc3c21 (configuration not stated) | Active | Active | Active
CCN(CC)CCCNc1c2ccccc2[n+](C)c2c1oc1ccc(OCC[N+](C)(C)C)cc12 | Active | Active | Active
CN(C)CCNc1c2ccccc2[n+](C)c2c1oc1ccccc12 | Active | Active | Active
CN(C)CCCNc1c2ccccc2nc2c1oc1cc(OCCCN(C)C)ccc12 | Active | Active | Active
C[n+]1c2ccccc2c(NCC(=O)NCC(=O)NC(Cc2ccccc2)C(=O)O)c2oc3ccccc3c21 (configuration not stated) | Active | Active | Active
COc1ccc2cc3[n+](cc2c1NCCN1CCCCC1)CCc1cc2c(cc1-3)OCO2 | Active |  | 
C[n+]1c2ccccc2c(NCCN2CCOCC2)c2oc3ccc(OCC[N+]4(C)CCOCC4)cc3c21 | Active | Active | Active
COc1ccc2cc3[n+](cc2c1OCCCCC[n+]1ccccc1)CCc1cc2c(cc1-3)OCO2 | Active |  | 
CN(C)CCCNc1c2ccccc2nc2c1oc1cc(OCCN(C)C)ccc12 | Active |  | 
CN(C)CCNc1c2ccccc2[n+](C)c2c1[nH]c1ccc(F)cc12 | Active | Active | Active
C[n+]1c2ccccc2c(NCCN2CCOCC2)c2oc3ccc(OCC4CC[N+](C)(C)CC4)cc3c21 | Active | Active | Active
C[n+]1c2ccccc2c(NCC(=O)NC(CCCNC(=N)N)C(=O)O)c2oc3ccccc3c21 (configuration not stated) | Active |  | 
COc1ccc2cc3[n+](cc2c1OCCN)CCc1cc2c(cc1-3)OCO2 | Active |  | 

SMILES | Activity (Homo sapiens [1]) | Activity [2] | Activity (Homo sapiens [3])
CN(C)CCNc1c2ccccc2[n+](C)c2c1[nH]c1cc(F)c(F)cc12 | Active |  | 
CN1CCC(COc2ccc3oc4c(NCC(=O)NCC(=O)NC(CCCNC(=N)N)C(=O)NC(CCCNC(=N)N)C(=O)NCC(=O)O)c5ccccc5nc4c3c2)CC1 (configuration not stated) (H-[X1]GRRG-OH; configuration not given here) | Active | Active | Active
CN(C)CCNc1c2ccccc2nc2c1oc1ccc(OCCN(C)C)cc12 | Active |  | 
CCN(CC)CCNc1c2ccccc2[n+](C)c2c1oc1ccc(OCC[N+](C)(C)C)cc12 | Active | Active | Active
CN(C)CCNc1c2ccccc2[n+](C)c2c1oc1ccc(OCC[N+]3(C)CCCCC3)cc12 | Active | Active | Active
COc1ccc2cc3[n+](cc2c1NCCN1CCOCC1)CCc1cc2c(cc1-3)OCO2 | Active |  | 
C[n+]1c2ccccc2c(NCCN2CCCCC2)c2oc3ccc(OCC4CC[N+](C)(C)CC4)cc3c21 | Active | Active | Active
C[n+]1c2ccccc2c(NCCN2CCCCC2)c2oc3ccc(OCC[N+](C)(C)C)cc3c21 | Active | Active | Active
CN1CCC(COc2ccc3oc4c(NCC(=O)NCC(=O)NC(CCCNC(=N)N)C(=O)NC(Cc5c[nH]cn5)C(=O)NCC(=O)O)c5ccccc5nc4c3c2)CC1 (configuration not stated) (H-[X1]GRHG-OH; configuration not given here) | Active |  | 
COc1ccc2cc3[n+](cc2c1OCCCOc1ccncc1)CCc1cc2c(cc1-3)OCO2 | Active |  | 
C[n+]1c2ccccc2c(NCCCN2CCCCC2)c2oc3ccc(OCC(=O)NCCCN4CCCCC4)cc3c21 | Active |  | 
CN1CCC(COc2ccc3oc4c(NCC(=O)NCC(=O)NC(CCCNC(=N)N)C(=O)NC(Cc5ccccc5)C(=O)O)c5ccccc5nc4c3c2)CC1 (configuration not stated) | Active |  | 
COc1ccc2cc3[n+](cc2c1NCCCCCCN)CCc1cc2c(cc1-3)OCO2 | Active |  | 
CN1CCC(COc2ccc3oc4c(NCC(=O)NCC(=O)NC(CCCNC(=N)N)C(=O)NC(CCC(N)=O)C(=O)O)c5ccccc5nc4c3c2)CC1 (configuration not stated) | Active |  | 
CN(C)CCCNc1c2ccccc2nc2c1oc1ccc(OCCCN(C)C)cc12 | Active |  | 
CN1CCC(COc2ccc3oc4c(NCC(=O)NC(Cc5c[nH]cn5)C(=O)NC(CCCNC(=N)N)C(=O)O)c5ccccc5nc4c3c2)CC1 (configuration not stated) | Active |  | 
CN1CCC(COc2ccc3oc4c(NCC(=O)NCC(=O)NC(Cc5c[nH]cn5)C(=O)O)c5ccccc5nc4c3c2)CC1 (configuration not stated) | Active |  | 
C[n+]1c2ccccc2c(NCC(=O)NC(Cc2ccccc2)C(=O)NC(CCCNC(=N)N)C(=O)O)c2oc3ccccc3c21 (configuration not stated) | Active |  | 
COc1ccc2cc3[n+](cc2c1OCCC[n+]1cccc(F)c1)CCc1cc2c(cc1-3)OCO2 | Active |  | 
COc1ccc2cc3[n+](cc2c1OCCCn1ccc(N)nc1=O)CCc1cc2c(cc1-3)OCO2 | Active |  | 
CN(C)CCNC(=O)COc1ccc2oc3c(NCCN(C)C)c4ccccc4[n+](C)c3c2c1 | Active |  | 
CCN(CC)CCOc1ccc(Nc2nc(-c3ccccc3N)nc3ccccc23)cc1 | Active |  | 
CN1CCC(COc2ccc3oc4c(NCC(=O)NCC(=O)NC(CCCCN)C(=O)O)c5ccccc5nc4c3c2)CC1 (configuration not stated) | Active |  | 
C[n+]1c2ccccc2c(NCCCN2CCOCC2)c2oc3ccc(OCC[N+]4(C)CCCCC4)cc3c21 | Active |  | 

SMILES | Activity (Homo sapiens [1]) | Activity [2] | Activity (Homo sapiens [3])
CN(C)CCCNc1c2ccccc2nc2c1oc1ccc(OCCN(C)C)cc12 | Active |  | 
COc1ccc2cc3[n+](cc2c1OCCC[n+]1cccc(C)c1)CCc1cc2c(cc1-3)OCO2 | Active |  | 
CN(C)CCCCOc1cccc2c1oc1c(NCCCN(C)C)c3ccccc3nc12 | Active |  | 
CN1CCC(COc2ccc3oc4c(NCC(=O)NCC(=O)NC(CCCNC(=N)N)C(=O)NC(Cc5ccc(O)cc5)C(=O)O)c5ccccc5nc4c3c2)CC1 (configuration not stated) | Active |  | 
C[n+]1c2ccccc2c(NCCN2CCOCC2)c2oc3ccc(OCC(=O)NCCN4CCOCC4)cc3c21 | Active |  | 
COc1ccc2cc3[n+](cc2c1NCCO)CCc1cc2c(cc1-3)OCO2 | Active |  | 
CN(C)CCCNc1c2ccccc2nc2c1oc1ccc(OCC3CCN(C)CC3)cc12 | Active |  | 
COc1ccc2cc3[n+](cc2c1OCCCCCC[n+]1ccccc1)CCc1cc2c(cc1-3)OCO2 | Active |  | 
COc1ccc2cc3[n+](cc2c1OCCCN)CCc1cc2c(cc1-3)OCO2 | Active |  | 
COc1ccc2cc3[n+](cc2c1OCCC[n+]1ccc(N(C)C)cc1)CCc1cc2c(cc1-3)OCO2 | Active |  | 
C[n+]1c2ccccc2c(NCCCN2CCOCC2)c2oc3ccc(OCC(=O)NCCN4CCOCC4)cc3c21 | Active |  | 
CN1CCC(COc2ccc3oc4c(NCC(=O)NCC(=O)NC(CCCNC(=N)N)C(=O)NC(Cc5c[nH]cn5)C(=O)O)c5ccccc5nc4c3c2)CC1 (configuration not stated) | Active |  | 
C[n+]1c2ccccc2c(NCC(=O)NC(CCCCN)C(=O)NC(CCCNC(=N)N)C(=O)O)c2oc3ccccc3c21 (configuration not stated) | Active |  | 
CC(NC(=O)C(CCCNC(=N)N)NC(=O)CNC(=O)CNc1c2ccccc2nc2c1oc1ccc(OCC3CCN(C)CC3)cc12)C(=O)O (configuration not stated) | Active |  | 
CN1CCC(COc2ccc3oc4c(NCC(=O)NCC(=O)NC(CCCNC(=N)N)C(=O)O)c5ccccc5nc4c3c2)CC1 (configuration not stated) | Active |  | 
CN(C)CCCNc1c2ccccc2[n+](C)c2c1[nH]c1ccccc12 | Active |  | 
CN1CCC(COc2ccc3oc4c(NCC(=O)NCC(=O)NCC(=O)O)c5ccccc5nc4c3c2)CC1 | Active |  | 
CN1CCC(COc2ccc3oc4c(NCC(=O)NCC(=O)NC(CCCNC(=N)N)C(=O)NC(Cc5c[nH]c6ccccc56)C(=O)O)c5ccccc5nc4c3c2)CC1 (configuration not stated) | Active |  | 
C[n+]1c2ccccc2c(NCC(=O)NCC(=O)NC(CCCCN)C(=O)O)c2oc3ccccc3c21 (configuration not stated) | Active |  | 
COc1ccc2cc3[n+](cc2c1NCCN(C)C)CCc1cc2c(cc1-3)OCO2 | Active |  | 
CCN(CC)CCOc1ccc(Nc2nc(-c3ccccc3NC(=O)CCCl)nc3ccccc23)cc1 | Active |  | 
COc1ccc2cc3[n+](cc2c1OCCC[n+]1ccccc1)CCc1cc2c(cc1-3)OCO2 | Active |  | 
CN1CCC(COc2ccc3oc4c(NCC(=O)NCC(=O)NC(CCCNC(=N)N)C(=O)NC(CCC(=O)O)C(=O)O)c5ccccc5nc4c3c2)CC1 (configuration not stated) | Active |  | 
